In US20100285149A1, “NOVEL TETRAHYDROPYRIDOTHIOPHENES” (priority 2006, published 2010):

How the values were obtained:
[1] = system: RKO (RKOp27) human colon adenocarcinoma cells; assay: Alamar Blue cell viability assay, proliferating (uninduced) RKO p27 cells; type: cell-based; conditions: anti-proliferative/cytotoxic activity, 72 hours incubation, no Ponasterone A
Method: The anti-proliferative/cytotoxic activity of the compounds described herein, can be tested on subclones of RKO (RKOp27) human colon adenocarcinoma cells (Schmidt et al., Oncogene 19, 2423-2429; 2000) using the Alamar Blue cell viability assay (described in O'Brien et al. Eur J Biochem 267, 5421-5426, 2000). The compounds are dissolved as 20 mM solutions in dimethylsulfoxide (DMSO) and subsequently diluted in semi-logarithmic steps. DMSO dilutions are further diluted 1:100 into Dulbecco's modified Eagle's medium (DMEM) containing 10% fetal calf serum to a final concentration twice as much as the final concentration in the test. RKO subclones are seeded into 96 well flat bottom plates at a density of 5000 cells per well in a volume of 50 μl per well. 24 hours after seeding the 50 μl each of the compound dilutions in DMEM medium are added into each well of the 96 Well plate. Each compound dilution is tested as quadruplicates. Wells containing untreated control cells are filled with 50 μl DMEM medium containing 1% DMSO. The cells are then incubated with the substances for 72 hours at 37° C. in a hunified atmosphere containing 5% carbon dioxide. To determine the viability of the cells, 10 μl of an Alamar Blue solution (Biosource) are added and the fluorescence is measured at an extinction of 544 nm and an emission of 590 nm. For the calculation of the cell viability the emission value from untreated cells is set as 100% viability and the emission rates of treated cells are set in relation to the values of untreated cells. Viabilities are expressed as % values.
The corresponding IC50 values of the compounds for anti-proliferative/cytotoxic activity are determined from the concentration-effect curves.
(§1) Representative IC50 values for anti-proliferation/cytotoxicity determined in the mentioned assays follow from the following table A, in which the numbers of the compound correspond to the numbers of the examples.

[2] = system: RKO colon adenocarcinoma cells (RKOp27) arrested by the expression of ectopic p27Kip1; assay: Alamar Blue cell viability assay, RKO p27 cells arrested by Ponasterone A induced p27Kip1; type: cell-based; conditions: Homo sapiens, anti-proliferative/cytotoxic activity, 72 hours incubation, 10 μM Ponasterone A
Method: To determine the cell cycle specific mode of action, subclones of RKO colon adenocarcinoma cells (RKOp27 or RKOp21 as described by Schmidt et al. in Oncogene 19, 2423-2429; 2000) are seeded into 96 well flat bottom plates at a density of 15000 cells per well in a volume of 50 μl per well in DMEM growth medium with 10% FCS containing 10 μM Ponasterone A. 24 hours after seeding the 50 μl each of the compound dilutions in DMEM medium are added into each well of the 96 Well plate. Each compound dilution is tested as quadruplicates. Wells containing untreated control cells are filled with 50 μl DMEM medium containing 1% DMSO. The cells are then incubated with the substances for 72 hours at 37° C. in a humidified athmosphere containing 5% carbon dioxide. To determine the viability of the cells, 10 μl of an Alamar Blue solution (Biosource) are added and the fluorescence was measured at an extinction of 544 nm and an emission of 590 nm. For the calculation of the cell viability the emission value from untreated cells is set as 100% viability and the emission rates of treated cells are set in relation to the values of untreated cells. Viabilities are expressed as % values. Viability is compared of proliferating cells grown in the absence of the inducer Ponasterone A, versus viability of cells arrested by the expression of ectopic p27Kip1 induced by Ponasterone A.
as §1

CCNC(=O)N1CCc2c(sc(NC(=O)C3CC3c3ccccc3OC)c2C#N)C1 (racemic) [Example 116, 3-Cyano-2-({1-[(RS)-2-(2-methoxy-phenyl)-cyclopropyl]-methanoyl}-amino)-4,7-dihydro-5H-thieno[2,3-c]pyridine-6-carboxylic acid ethylamide]
IC50 [1]: ≤ 0.5 µM
IC50 [2]: ≥ 100 µM

CCNC(=O)N1CCc2c(sc(NC(=O)C3CC3c3cccc(OC)c3)c2C#N)C1 (racemic) [Example 117, 3-Cyano-2-({1-[(RS)-2-(3-methoxy-phenyl)-cyclopropyl]-methanoyl}-amino)-4,7-dihydro-5H-thieno[2,3-c]pyridine-6-carboxylic acid ethylamide]
IC50 [1]: ≤ 0.5 µM
IC50 [2]: ≥ 60 µM

COc1cccc(CCC(=O)Nc2sc3c(c2C#N)CCN(C(=O)NCCc2cn(C)cn2)C3)c1 [Example 71, 3-Cyano-2-[3-(3-methoxy-phenyl)-propanoylamino]-4,7-dihydro-5H-thieno[2,3-c]pyridine-6-carboxylic acid [2-(1-methyl-1H-imidazol-4-yl)-ethyl]-amide]
IC50 [1]: 0.5 to 2 µM
IC50 [2]: ≥ 100 µM

COc1ccccc1CCC(=O)Nc1sc2c(c1C#N)CCN(C(=O)NCCc1cn(C)cn1)C2 [Example 105, 3-Cyano-2-[3-(2-methoxy-phenyl)-propanoylamino]-4,7-dihydro-5H-thieno[2,3-c]pyridine-6-carboxylic acid [2-(1-methyl-1H-imidazol-4-yl)-ethyl]-amide]
IC50 [1]: ≤ 0.5 µM
IC50 [2]: ≥ 100 µM

CCNC(=O)N1CCc2c(sc(NC(=O)CCc3ccccc3OCC)c2C#N)C1 [Example 106, 3-Cyano-2-[3-(2-ethoxy-phenyl)-propanoylamino]-4,7-dihydro-5H-thieno[2,3-c]pyridine-6-carboxylic acid ethylamide]
IC50 [1]: ≤ 0.5 µM
IC50 [2]: ≥ 100 µM

CCNC(=O)N1CCc2c(sc(NC(=O)CCc3cc(C)ccc3OC)c2C#N)C1 [Example 107, 3-Cyano-2-[3-(2-methoxy-5-methyl-phenyl)-propanoylamino]-4,7-dihydro-5H-thieno[2,3-c]pyridine-6-carboxylic acid ethylamide]
IC50 [1]: ≤ 0.5 µM
IC50 [2]: ≥ 100 µM

CCNC(=O)N1CCc2c(sc(NC(=O)CCc3cccc(OC)c3)c2C#N)C1 [Example 108, 3-Cyano-2-[3-(3-methoxy-phenyl)-propanoylamino]-4,7-dihydro-5H-thieno[2,3-c]pyridine-6-carboxylic acid ethylamide]
IC50 [1]: ≤ 0.5 µM
IC50 [2]: ≥ 100 µM

CCNC(=O)N1CCc2c(sc(NC(=O)CCc3ccco3)c2C#N)C1 [Example 109, 3-Cyano-2-(3-furan-2-yl-propanoylamino)-4,7-dihydro-5H-thieno[2,3-c]pyridine-6-carboxylic acid ethylamide]
IC50 [1]: ≤ 0.5 µM
IC50 [2]: ≥ 100 µM

CCNC(=O)N1CCc2c(sc(NC(=O)CC(C)c3cccc(OC)c3)c2C#N)C1 (stereo not drawn) [Example 110, 3-Cyano-2-[3-(3-methoxy-phenyl)-butanoylamino]-4,7-dihydro-5H-thieno[2,3-c]pyridine-6-carboxylic acid ethylamide]
IC50 [1]: ≤ 0.5 µM
IC50 [2]: ≥ 100 µM

CCNC(=O)N1CCc2c(sc(NC(=O)CC(C)c3ccccc3OC)c2C#N)C1 (stereo not drawn) [Example 111, 3-Cyano-2-[3-(2-methoxy-phenyl)-butanoylamino]-4,7-dihydro-5H-thieno[2,3-c]pyridine-6-carboxylic acid ethylamide]
IC50 [1]: ≤ 0.5 µM
IC50 [2]: ≥ 60 µM

CCNC(=O)N1CCc2c(sc(NC(=O)CC(C)c3ccccc3OCC)c2C#N)C1 (stereo not drawn) [Example 112, 3-Cyano-2-[3-(2-ethoxy-phenyl)-butanoylamino]-4,7-dihydro-5H-thieno[2,3-c]pyridine-6-carboxylic acid ethylamide]
IC50 [1]: ≤ 0.5 µM
IC50 [2]: ≥ 100 µM

CCNC(=O)N1CCc2c(sc(NC(=O)CCc3ccccc3OC)c2C#N)C1 [Example 113, 3-Cyano-2-[3-(2-methoxy-phenyl)-propanoylamino]-4,7-dihydro-5H-thieno[2,3-c]pyridine-6-carboxylic acid ethylamide]
IC50 [1]: ≤ 0.5 µM
IC50 [2]: ≥ 100 µM

CCNC(=O)N1CCc2c(sc(NC(=O)CC(C)c3ccccc3)c2C#N)C1 (stereo not drawn) [Example 114, 3-Cyano-2-(3-phenyl-butanoylamino)-4,7-dihydro-5H-thieno[2,3-c]pyridine-6-carboxylic acid ethylamide]
IC50 [1]: ≤ 0.5 µM
IC50 [2]: ≥ 100 µM

CCNC(=O)N1CCc2c(sc(NC(=O)CCc3ccccc3)c2C#N)C1 [Example 115, 3-Cyano-2-(3-phenyl-propanoylamino)-4,7-dihydro-5H-thieno[2,3-c]pyridine-6-carboxylic acid ethylamide]
IC50 [1]: ≤ 0.5 µM
IC50 [2]: ≥ 100 µM

CCNC(=O)N1CCc2c(sc(NC(=O)CCC3CCCCC3)c2C#N)C1 [Example 118, 3-Cyano-2-(3-cyclohexyl-propanoylamino)-4,7-dihydro-5H-thieno[2,3-c]pyridine-6-carboxylic acid ethylamide]
IC50 [1]: ≤ 0.5 µM
IC50 [2]: ≥ 100 µM
